Experimental data published in PubChem BioAssay (NCI).
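Growth conditions: 96-well plates. Treatment: test compound, 48 hours, 5 concentrations. Analysis: linear interpolation between bracketing concentrations; unreached endpoints set to highest concentration. The concentration for full growth arrest is given as TGI.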

Legend:
Test in all cases: DTP human tumour cell line panel, 48 h
[1] = system: M19-MEL melanoma
[2] = system: XF 498 CNS
[3] = system: LXFL 529 NSCLC
[4] = system: SNB-78 CNS
[5] = system: KM20L2 colon
[6] = system: DMS 273 small cell lung
[7] = system: HOP-18 NSCLC

Measured: TGI

c1ccc([P+](Cc2csnn2)(c2ccccc2)c2ccccc2)cc1
> 100 µM: all assays above
